Data from patent US12350473B2 (priority 2018, dated 2025).
Like-named read-outs stand apart in the source and are kept apart here.

Experiments:
[1] = in vivo; cited from earlier work
[2] = in vivo, cited from earlier work
[3] = tested on: quadriceps femoris muscle injection site; test: Example 13: GLP local tolerance study of naloxone following intramuscular injection; type: in vivo, New Zealand White Rabbits; conditions: for injection site findings: 7-day observation
Experimental: Mortality and clinical observations were recorded twice daily. […] On Day 8, the animals were euthanized and subject to a necropsy examination. A full tissue list was preserved, but only the test site and contralateral site in the other quadriceps femoris were processed for histopathological evaluation.

[4] = tested on: opioid overdose; test: Examples 10-12: high dose naloxone injection in emergency room opioid overdose cases; type: in vivo, human
Experimental: (§1) A person is admitted to a local emergency room suffering from an opioid overdose. A high dose naloxone composition is administered by injection to the person.
as §1

[5] = tested on: morphine effects; conditions: cited from earlier work
[6] = tested on: buprenorphine intravenous induced respiratory depression; conditions: 5 mg and 10 mg naloxone intravenously; cited from earlier work
[7] = tested on: respiratory depression; conditions: IV morphine […] reversed with naloxone 0.4 mg; cited from earlier work
[8] = in vivo; cited from earlier work; remark: listed apart in the source

CC(=O)Oc1ccc2c3c1O[C@H]1[C@@H](OC(C)=O)C=C[C@H]4[C@@H](C2)N(C)CC[C@@]341 [heroin]
half-life [1]: 3 to 7 h

CN1CC[C@]23c4c5ccc(O)c4O[C@H]2[C@@H](O)C=C[C@H]3[C@H]1C5 [morphine]
analgesic onset ([2]; iv): 6 min
duration of action ([2]; iv): 96 min
duration of action [2]: Longer

C=CCN1CC[C@]23c4c5ccc(O)c4O[C@H]2C(=O)CC[C@@]3(O)[C@H]1C5 [naloxone]
erythema at injection site ([3]; males receiving 15 mg/animal, attributed to the shaving procedure): low incidence of slight erythema
histology: effect on the examined tissue ([3]; rabbits, 5 mg/0.5 mL three times (15 mg total dose), Day 8 necropsy): no evidence
injection site findings ([3]; rabbits, IM injection in 3 sites each 2 mg/0.4 mL (total 6 mg)): no injection site findings attributed to treatment
injection site findings ([3]; rabbits, IM injection in 3 sites each 5 mg/0.5 mL (total 15 mg)): no injection site findings attributed to treatment
outcome of opioid overdose ([4]; Example 10: person, 5 mg in a single injection): recovers from the overdose event
outcome of opioid overdose ([4]; Example 11: person, 10 mg in a single injection): recovers from the overdose event
outcome of opioid overdose ([4]; Example 12: person, 20 mg in a single injection): recovers from the overdose event
reversal of morphine effects at the 30 mg dose ([5]; 30 mg i.m. naloxone): no additional reversal
naloxone dose up to which reversal of the morphine effects was dose related ([5]; intra-muscular, 70 kg subject, morphine 18 or 30 mg/70 kg i.m.): up to 10 mg
reversal of opioid effects [6]: Complete reversal
return to severe respiratory depression after reversal [7]: ≤ 30 min
distribution half-life [8]: 4.7 min
elimination half-life (average) [8]: 1.08 h
